Data reported in the supplement of paper PMC10307832.

Experiments:
Test in all cases: relative viability (nuclei count vs DMSO), 5 days (fraction); higher = more cells survive
HARA = tested on: HARA
Outline: (§1)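 Lung cancer cell lines in 1536-well plates were dosed by pin tool the day after seeding, either with one drug alone or with a fixed anchor-drug dose plus five library-drug doses (not always all listed) in √10 steps. After 5 days, cells were fixed and their nuclei stained in one step (final 0.05% Triton X-100, 1% formaldehyde, 1 ug/ml Hoechst), then counted on 4× images. Relative viability is the nuclei count in treated wells divided by that in vehicle wells. Values are medians of duplicate plates.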

LC-2-ad = tested on: LC-2-ad
Outline: as §1

NCI-H522 = tested on: NCI-H522
Outline: as §1

LXF-289 = tested on: LXF-289
Outline: as §1

PC-14 = tested on: PC-14
Outline: as §1

HCC-366 = tested on: HCC-366
Outline: as §1

NCI-H2126 = tested on: NCI-H2126
Outline: as §1

HCC-15 = tested on: HCC-15
Outline: as §1

NCI-H2009 = tested on: NCI-H2009
Outline: as §1

COR-L23 = tested on: COR-L23
Outline: as §1

HCC-44 = tested on: HCC-44
Outline: as §1

HCC-827 = tested on: HCC-827
Outline: as §1

LU99A = tested on: LU99A
Outline: as §1

NCI-H2087 = tested on: NCI-H2087
Outline: as §1

BEN = tested on: BEN
Outline: as §1

CAL-12T = tested on: CAL-12T
Outline: as §1

NCI-H727 = tested on: NCI-H727
Outline: as §1

HOP-62 = tested on: HOP-62
Outline: as §1

SK-MES-1 = tested on: SK-MES-1
Outline: as §1

PC-3 [JPC-3] = tested on: PC-3 [JPC-3]
Outline: as §1

NCI-H1993 = tested on: NCI-H1993
Outline: as §1

COR-L 105 = tested on: COR-L 105
Outline: as §1

NCI-H2170 = tested on: NCI-H2170
Outline: as §1

LCLC-97TM1 = tested on: LCLC-97TM1
Outline: as §1

CCCCCCCCCCCC1=C(O)C(=O)C=C(O)C1=O [Embelin] + O=C(c1cc(Cc2n[nH]c(=O)c3ccccc23)ccc1F)N1CCN(C(=O)C2CC2)CC1 [Olaparib] (partner 8 µM)
relative viability (HARA; first compound 0.08 µM): 0.85
relative viability (HARA; first compound 0.8 µM): 0.734
relative viability (HARA; first compound 2.53 µM): 1.12
relative viability (HARA; first compound 8 µM): 0.763
relative viability (LC-2-ad; first compound 0.08 µM): 0.675
relative viability (LC-2-ad; first compound 0.8 µM): 0.728
relative viability (LC-2-ad; first compound 2.53 µM): 0.678
relative viability (LC-2-ad; first compound 8 µM): 0.727
relative viability (NCI-H522; first compound 0.08 µM): 0.674
relative viability (NCI-H522; first compound 0.8 µM): 0.633
relative viability (NCI-H522; first compound 2.53 µM): 0.689
relative viability (NCI-H522; first compound 8 µM): 0.945
relative viability (LXF-289; first compound 0.08 µM): 1.06
relative viability (LXF-289; first compound 0.8 µM): 1.17
relative viability (LXF-289; first compound 2.53 µM): 1.26
relative viability (LXF-289; first compound 8 µM): 1.14
relative viability (PC-14; first compound 0.08 µM): 0.279
relative viability (PC-14; first compound 0.8 µM): 0.264
relative viability (PC-14; first compound 2.53 µM): 0.303
relative viability (PC-14; first compound 8 µM): 0.26
relative viability (HCC-366; first compound 0.08 µM): 0.335
relative viability (HCC-366; first compound 0.8 µM): 0.369
relative viability (HCC-366; first compound 2.53 µM): 0.372
relative viability (HCC-366; first compound 8 µM): 0.423
relative viability (NCI-H2126; first compound 0.08 µM): 0.901
relative viability (NCI-H2126; first compound 0.8 µM): 0.954
relative viability (NCI-H2126; first compound 2.53 µM): 0.936
relative viability (NCI-H2126; first compound 8 µM): 0.892
relative viability (HCC-15; first compound 0.08 µM): 0.689
relative viability (HCC-15; first compound 0.8 µM): 0.727
relative viability (HCC-15; first compound 2.53 µM): 0.823
relative viability (HCC-15; first compound 8 µM): 0.73
relative viability (NCI-H2009; first compound 0.08 µM): 0.693
relative viability (NCI-H2009; first compound 0.8 µM): 0.821
relative viability (NCI-H2009; first compound 2.53 µM): 0.71
relative viability (NCI-H2009; first compound 8 µM): 0.696
relative viability (COR-L23; first compound 0.08 µM): 0.373
relative viability (COR-L23; first compound 0.8 µM): 0.352
relative viability (COR-L23; first compound 2.53 µM): 0.348
relative viability (COR-L23; first compound 8 µM): 0.346
relative viability (HCC-44; first compound 0.08 µM): 0.989
relative viability (HCC-44; first compound 0.8 µM): 0.959
relative viability (HCC-44; first compound 2.53 µM): 1.01
relative viability (HCC-44; first compound 8 µM): 1
relative viability (HCC-827; first compound 0.08 µM): 0.634
relative viability (HCC-827; first compound 0.8 µM): 0.648
relative viability (HCC-827; first compound 2.53 µM): 0.701
relative viability (HCC-827; first compound 8 µM): 0.715
relative viability (LU99A; first compound 0.08 µM): 0.293
relative viability (LU99A; first compound 0.8 µM): 0.218
relative viability (LU99A; first compound 2.53 µM): 0.281
relative viability (LU99A; first compound 8 µM): 0.241
relative viability (NCI-H2087; first compound 0.08 µM): 0.649
relative viability (NCI-H2087; first compound 0.8 µM): 0.729
relative viability (NCI-H2087; first compound 2.53 µM): 0.688
relative viability (NCI-H2087; first compound 8 µM): 0.607
relative viability (BEN; first compound 0.08 µM): 1.15
relative viability (BEN; first compound 0.8 µM): 1.37
relative viability (BEN; first compound 2.53 µM): 1.13
relative viability (BEN; first compound 8 µM): 1.22
relative viability (CAL-12T; first compound 0.08 µM): 0.726
relative viability (CAL-12T; first compound 0.8 µM): 0.727
relative viability (CAL-12T; first compound 2.53 µM): 0.706
relative viability (CAL-12T; first compound 8 µM): 0.677
relative viability (NCI-H727; first compound 0.08 µM): 0.757
relative viability (NCI-H727; first compound 0.8 µM): 0.621
relative viability (NCI-H727; first compound 2.53 µM): 0.777
relative viability (NCI-H727; first compound 8 µM): 0.633
relative viability (HOP-62; first compound 0.08 µM): 0.29
relative viability (HOP-62; first compound 0.8 µM): 0.253
relative viability (HOP-62; first compound 2.53 µM): 0.354
relative viability (HOP-62; first compound 8 µM): 0.451
relative viability (SK-MES-1; first compound 0.08 µM): 0.757
relative viability (SK-MES-1; first compound 0.8 µM): 0.815
relative viability (SK-MES-1; first compound 2.53 µM): 0.802
relative viability (SK-MES-1; first compound 8 µM): 0.214
relative viability (PC-3 [JPC-3]; first compound 0.08 µM): 1.12
relative viability (PC-3 [JPC-3]; first compound 0.8 µM): 1.17
relative viability (PC-3 [JPC-3]; first compound 2.53 µM): 1.17
relative viability (PC-3 [JPC-3]; first compound 8 µM): 1.07
relative viability (NCI-H1993; first compound 0.08 µM): 1.16
relative viability (NCI-H1993; first compound 0.8 µM): 1.07
relative viability (NCI-H1993; first compound 2.53 µM): 1.21
relative viability (NCI-H1993; first compound 8 µM): 1.6
relative viability (COR-L 105; first compound 0.08 µM): 0.737
relative viability (COR-L 105; first compound 0.8 µM): 0.611
relative viability (COR-L 105; first compound 2.53 µM): 0.615
relative viability (COR-L 105; first compound 8 µM): 0.573
relative viability (NCI-H2170; first compound 0.08 µM): 0.569
relative viability (NCI-H2170; first compound 0.8 µM): 0.554
relative viability (NCI-H2170; first compound 2.53 µM): 0.586
relative viability (NCI-H2170; first compound 8 µM): 0.592
relative viability (LCLC-97TM1; first compound 0.08 µM): 0.38
relative viability (LCLC-97TM1; first compound 0.8 µM): 0.462
relative viability (LCLC-97TM1; first compound 2.53 µM): 0.445
relative viability (LCLC-97TM1; first compound 8 µM): 0.45
